# Data reported in PubChem BioAssay (NCI).
#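 Values below derive from 48-hour exposures of cells grown in 96-well plates, with endpoints linearly interpolated between the two concentrations bracketing the appropriate inhibition level. TGI is the concentration that stops growth completely.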
# Legend:
# Test in all cases: growth of human tumour cells (NCI), 48 h
# 786-0 renal = system: 786-0 renal
# A549 NSCLC = system: A549 NSCLC
# ACHN renal = system: ACHN renal
# CCRF-CEM leukemia = system: CCRF-CEM leukemia
# COLO 205 colon = system: COLO 205 colon
# DMS 114 small cell lung = system: DMS 114 small cell lung
# DMS 273 small cell lung = system: DMS 273 small cell lung
# EKVX NSCLC = system: EKVX NSCLC
# HCT-116 colon = system: HCT-116 colon
# HL-60(TB) leukemia = system: HL-60(TB) leukemia
# HOP-18 NSCLC = system: HOP-18 NSCLC
# HOP-92 NSCLC = system: HOP-92 NSCLC
# HT29 colon = system: HT29 colon
# K-562 leukemia = system: K-562 leukemia
# M14 melanoma = system: M14 melanoma
# MALME-3M melanoma = system: MALME-3M melanoma
# MOLT-4 leukemia = system: MOLT-4 leukemia
# NCI-H23 lung = system: NCI-H23 lung
# OVCAR-3 ovarian = system: OVCAR-3 ovarian
# OVCAR-4 ovarian = system: OVCAR-4 ovarian
# OVCAR-8 ovarian = system: OVCAR-8 ovarian
# RPMI-8226 leukemia = system: RPMI-8226 leukemia
# SF-268 CNS = system: SF-268 CNS
# SF-295 CNS = system: SF-295 CNS
# SF-539 CNS = system: SF-539 CNS
# SK-MEL-28 melanoma = system: SK-MEL-28 melanoma
# SK-OV-3 ovarian = system: SK-OV-3 ovarian
# SN12C renal = system: SN12C renal
# SNB-19 CNS = system: SNB-19 CNS
# SNB-75 CNS = system: SNB-75 CNS
# SNB-78 CNS = system: SNB-78 CNS
# U251 CNS = system: U251 CNS
# UACC-257 melanoma = system: UACC-257 melanoma
# UO-31 renal = system: UO-31 renal
# XF 498 CNS = system: XF 498 CNS
# A498 renal = system: A498 renal
# CAKI-1 renal = system: CAKI-1 renal
# DLD-1 colon = system: DLD-1 colon
# HCC-2998 colon = system: HCC-2998 colon
# HCT-15 colon = system: HCT-15 colon
# HOP-62 NSCLC = system: HOP-62 NSCLC
# IGROV1 ovarian = system: IGROV1 ovarian
# KM12 colon = system: KM12 colon
# KM20L2 colon = system: KM20L2 colon
# LOX IMVI melanoma = system: LOX IMVI melanoma
# LXFL 529 NSCLC = system: LXFL 529 NSCLC
# M19-MEL melanoma = system: M19-MEL melanoma
# NCI-H226 lung = system: NCI-H226 lung
# NCI-H460 lung = system: NCI-H460 lung
# NCI-H522 lung = system: NCI-H522 lung
# OVCAR-5 ovarian = system: OVCAR-5 ovarian
# RXF 393 renal = system: RXF 393 renal
# SK-MEL-2 melanoma = system: SK-MEL-2 melanoma
# SK-MEL-5 melanoma = system: SK-MEL-5 melanoma
# SR leukemia = system: SR leukemia
# SW-620 colon = system: SW-620 colon
# TK-10 renal = system: TK-10 renal
# UACC-62 melanoma = system: UACC-62 melanoma
# BT-549 breast = system: BT-549 breast
# DU-145 prostate = system: DU-145 prostate
# HS 578T breast = system: HS 578T breast
# MCF7 breast = system: MCF7 breast
# MDA-MB-231 breast = system: MDA-MB-231 breast
# MDA-MB-435 = system: MDA-MB-435
# MDA-N = system: MDA-N
# NCI/ADR-RES ovarian = system: NCI/ADR-RES ovarian
# PC-3 prostate = system: PC-3 prostate
# T-47D breast = system: T-47D breast
structure (smiles),measurement,setting,value
COc1ccc(CSc2nc3ccccc3nc2-c2cccs2)cc1,TGI,786-0 renal,> 100 µM
same,TGI,A549 NSCLC,> 100 µM
same,TGI,ACHN renal,> 100 µM
same,TGI,CCRF-CEM leukemia,76.3 µM
same,TGI,COLO 205 colon,> 100 µM
same,TGI,DMS 114 small cell lung,> 100 µM
same,TGI,DMS 273 small cell lung,> 100 µM
same,TGI,EKVX NSCLC,> 100 µM
same,TGI,HCT-116 colon,> 100 µM
same,TGI,HL-60(TB) leukemia,> 100 µM
same,TGI,HOP-18 NSCLC,> 100 µM
same,TGI,HOP-92 NSCLC,> 100 µM
same,TGI,HT29 colon,> 100 µM
same,TGI,K-562 leukemia,> 100 µM
same,TGI,M14 melanoma,> 100 µM
same,TGI,MALME-3M melanoma,> 100 µM
same,TGI,MOLT-4 leukemia,> 100 µM
same,TGI,NCI-H23 lung,> 100 µM
same,TGI,OVCAR-3 ovarian,> 100 µM
same,TGI,OVCAR-4 ovarian,> 100 µM
same,TGI,OVCAR-8 ovarian,> 100 µM
same,TGI,RPMI-8226 leukemia,> 100 µM
same,TGI,SF-268 CNS,> 100 µM
same,TGI,SF-295 CNS,> 100 µM
same,TGI,SF-539 CNS,> 100 µM
same,TGI,SK-MEL-28 melanoma,> 100 µM
same,TGI,SK-OV-3 ovarian,> 100 µM
same,TGI,SN12C renal,> 100 µM
same,TGI,SNB-19 CNS,> 100 µM
same,TGI,SNB-75 CNS,> 100 µM
same,TGI,SNB-78 CNS,> 100 µM
same,TGI,U251 CNS,> 100 µM
same,TGI,UACC-257 melanoma,> 100 µM
same,TGI,UO-31 renal,> 100 µM
same,TGI,XF 498 CNS,> 100 µM
Cc1cccc(C(C)(C)C)c1NC(=O)C(=O)C(c1cnc2ccccc2n1)[N+](=O)[O-] (stereo unspecified),TGI,786-0 renal,> 100 µM
same,TGI,A498 renal,> 100 µM
same,TGI,A549 NSCLC,> 100 µM
same,TGI,ACHN renal,> 100 µM
same,TGI,CAKI-1 renal,> 100 µM
same,TGI,CCRF-CEM leukemia,> 100 µM
same,TGI,COLO 205 colon,> 100 µM
same,TGI,DLD-1 colon,> 100 µM
same,TGI,DMS 114 small cell lung,> 100 µM
same,TGI,DMS 273 small cell lung,> 100 µM
same,TGI,EKVX NSCLC,> 100 µM
same,TGI,HCC-2998 colon,> 100 µM
same,TGI,HCT-116 colon,> 100 µM
same,TGI,HCT-15 colon,> 100 µM
same,TGI,HL-60(TB) leukemia,> 100 µM
same,TGI,HOP-18 NSCLC,> 100 µM
same,TGI,HOP-62 NSCLC,> 100 µM
same,TGI,HOP-92 NSCLC,> 100 µM
same,TGI,HT29 colon,> 100 µM
same,TGI,IGROV1 ovarian,> 100 µM
same,TGI,K-562 leukemia,> 100 µM
same,TGI,KM12 colon,> 100 µM
same,TGI,KM20L2 colon,> 100 µM
same,TGI,LOX IMVI melanoma,> 100 µM
same,TGI,LXFL 529 NSCLC,> 100 µM
same,TGI,M14 melanoma,> 100 µM
same,TGI,M19-MEL melanoma,> 100 µM
same,TGI,MALME-3M melanoma,> 100 µM
same,TGI,MOLT-4 leukemia,> 100 µM
same,TGI,NCI-H226 lung,> 100 µM
same,TGI,NCI-H23 lung,> 100 µM
same,TGI,NCI-H460 lung,> 100 µM
same,TGI,NCI-H522 lung,> 100 µM
same,TGI,OVCAR-4 ovarian,> 100 µM
same,TGI,OVCAR-5 ovarian,> 100 µM
same,TGI,OVCAR-8 ovarian,> 100 µM
same,TGI,RPMI-8226 leukemia,> 100 µM
same,TGI,RXF 393 renal,> 100 µM
same,TGI,SF-268 CNS,> 100 µM
same,TGI,SF-295 CNS,> 100 µM
same,TGI,SF-539 CNS,> 100 µM
same,TGI,SK-MEL-2 melanoma,> 100 µM
same,TGI,SK-MEL-28 melanoma,> 100 µM
same,TGI,SK-MEL-5 melanoma,> 100 µM
same,TGI,SK-OV-3 ovarian,> 100 µM
same,TGI,SN12C renal,> 100 µM
same,TGI,SNB-19 CNS,> 100 µM
same,TGI,SNB-75 CNS,> 100 µM
same,TGI,SNB-78 CNS,> 100 µM
same,TGI,SR leukemia,> 100 µM
same,TGI,SW-620 colon,> 100 µM
same,TGI,TK-10 renal,> 100 µM
same,TGI,U251 CNS,> 100 µM
same,TGI,UACC-257 melanoma,> 100 µM
same,TGI,UACC-62 melanoma,> 100 µM
same,TGI,UO-31 renal,> 100 µM
same,TGI,XF 498 CNS,> 100 µM
COC1CC(n2cnc3c(N)ncnc32)OC1CO (stereo unspecified),TGI,786-0 renal,> 100 µM
same,TGI,A549 NSCLC,> 100 µM
same,TGI,ACHN renal,> 100 µM
same,TGI,CAKI-1 renal,> 100 µM
same,TGI,CCRF-CEM leukemia,> 100 µM
same,TGI,COLO 205 colon,> 100 µM
same,TGI,DLD-1 colon,> 100 µM
same,TGI,DMS 114 small cell lung,> 100 µM
same,TGI,DMS 273 small cell lung,> 100 µM
same,TGI,HCC-2998 colon,> 100 µM
same,TGI,HCT-116 colon,> 100 µM
same,TGI,HCT-15 colon,> 100 µM
same,TGI,HL-60(TB) leukemia,> 100 µM
same,TGI,HOP-62 NSCLC,> 100 µM
same,TGI,HOP-92 NSCLC,> 100 µM
same,TGI,HT29 colon,> 100 µM
same,TGI,IGROV1 ovarian,> 100 µM
same,TGI,K-562 leukemia,> 100 µM
same,TGI,KM12 colon,> 100 µM
same,TGI,KM20L2 colon,> 100 µM
same,TGI,LXFL 529 NSCLC,> 100 µM
same,TGI,M14 melanoma,> 100 µM
same,TGI,M19-MEL melanoma,> 100 µM
same,TGI,MALME-3M melanoma,> 100 µM
same,TGI,MOLT-4 leukemia,> 100 µM
same,TGI,NCI-H226 lung,> 100 µM
same,TGI,NCI-H23 lung,> 100 µM
same,TGI,NCI-H460 lung,> 100 µM
same,TGI,NCI-H522 lung,> 100 µM
same,TGI,OVCAR-3 ovarian,> 100 µM
same,TGI,OVCAR-4 ovarian,> 100 µM
same,TGI,OVCAR-5 ovarian,> 100 µM
same,TGI,OVCAR-8 ovarian,> 100 µM
same,TGI,RPMI-8226 leukemia,> 100 µM
same,TGI,SF-268 CNS,> 100 µM
same,TGI,SF-295 CNS,> 100 µM
same,TGI,SF-539 CNS,> 100 µM
same,TGI,SK-MEL-2 melanoma,> 100 µM
same,TGI,SK-MEL-28 melanoma,> 100 µM
same,TGI,SK-MEL-5 melanoma,> 100 µM
same,TGI,SNB-19 CNS,> 100 µM
same,TGI,SNB-75 CNS,> 100 µM
same,TGI,SR leukemia,> 100 µM
same,TGI,SW-620 colon,> 100 µM
same,TGI,TK-10 renal,> 100 µM
same,TGI,U251 CNS,> 100 µM
same,TGI,UACC-257 melanoma,> 100 µM
same,TGI,UACC-62 melanoma,> 100 µM
same,TGI,UO-31 renal,> 100 µM
same,TGI,XF 498 CNS,> 100 µM
CN(N)/N=N/c1nc[nH]c1C(N)=O,TGI,786-0 renal,> 100 µM
same,TGI,A498 renal,> 100 µM
same,TGI,A549 NSCLC,> 100 µM
same,TGI,ACHN renal,> 100 µM
same,TGI,BT-549 breast,> 100 µM
same,TGI,CAKI-1 renal,55.2 µM
same,TGI,CCRF-CEM leukemia,> 27 µM
same,TGI,COLO 205 colon,> 69.7 µM
same,TGI,DU-145 prostate,> 100 µM
same,TGI,EKVX NSCLC,> 100 µM
same,TGI,HCC-2998 colon,> 42.2 µM
same,TGI,HCT-116 colon,> 100 µM
same,TGI,HCT-15 colon,> 100 µM
same,TGI,HL-60(TB) leukemia,14.6 µM
same,TGI,HOP-62 NSCLC,> 100 µM
same,TGI,HOP-92 NSCLC,> 100 µM
same,TGI,HS 578T breast,> 100 µM
same,TGI,HT29 colon,> 100 µM
same,TGI,IGROV1 ovarian,> 100 µM
same,TGI,K-562 leukemia,> 100 µM
same,TGI,KM12 colon,> 82.4 µM
same,TGI,LOX IMVI melanoma,> 100 µM
same,TGI,M14 melanoma,> 100 µM
same,TGI,MALME-3M melanoma,> 100 µM
same,TGI,MCF7 breast,> 100 µM
same,TGI,MDA-MB-231 breast,> 32.2 µM
same,TGI,MDA-MB-435,> 100 µM
same,TGI,MDA-N,> 100 µM
same,TGI,MOLT-4 leukemia,8.05 µM
same,TGI,NCI-H226 lung,> 100 µM
same,TGI,NCI-H23 lung,> 100 µM
same,TGI,NCI-H460 lung,> 71.5 µM
same,TGI,NCI-H522 lung,> 100 µM
same,TGI,NCI/ADR-RES ovarian,> 100 µM
same,TGI,OVCAR-3 ovarian,> 100 µM
same,TGI,OVCAR-4 ovarian,> 100 µM
same,TGI,OVCAR-5 ovarian,> 100 µM
same,TGI,OVCAR-8 ovarian,> 100 µM
same,TGI,PC-3 prostate,> 100 µM
same,TGI,RPMI-8226 leukemia,> 100 µM
same,TGI,RXF 393 renal,> 100 µM
same,TGI,SF-268 CNS,> 100 µM
same,TGI,SF-295 CNS,> 70.9 µM
same,TGI,SF-539 CNS,> 100 µM
same,TGI,SK-MEL-2 melanoma,> 100 µM
same,TGI,SK-MEL-28 melanoma,> 100 µM
same,TGI,SK-MEL-5 melanoma,> 100 µM
same,TGI,SK-OV-3 ovarian,> 100 µM
same,TGI,SN12C renal,> 57.2 µM
same,TGI,SNB-19 CNS,> 100 µM
same,TGI,SNB-75 CNS,> 100 µM
same,TGI,SR leukemia,2.23 µM
same,TGI,SW-620 colon,> 100 µM
same,TGI,T-47D breast,> 100 µM
same,TGI,TK-10 renal,> 100 µM
same,TGI,U251 CNS,> 100 µM
same,TGI,UACC-257 melanoma,> 100 µM
same,TGI,UACC-62 melanoma,> 100 µM
same,TGI,UO-31 renal,> 62.2 µM
